# Data published in patent US6743895B1, “Bone stimulating factor” (Osteopharm Inc., priority 1995, dated 2004).
# No end group written: not given here.
# Tests used:
# [1] = system: rats; test: Bone mineral apposition rate in intact rats after subcutaneous injection of polypeptide, tetracycline labelling; format: in vivo, Sprague-Dawley rats; settings: for Increase of bone apposition rate with respect to the control: non-N-terminus variants (Table Nineteen, FIG. 12); for Bone Apposition Rate, Mean: rats injected with non-N-terminus variants, SEQ ID NO:1 for comparison, lower metaphysis of right femur (Table Nineteen); for Bone stimulatory activity of substituted 10-amino acid polypeptides: rats about 300 grams, 100 nmoles s.c. per animal, N-terminus acetylated, C-terminus amidated, compared with family retaining full charge pattern
# Protocol: Experiments were carried out on three groups of six rats weighing between 295 and 320 g. A 1 mg per ml solution of the modified peptide (SEQ ID NO:3) was prepared in 0.1% acetic acid. A 1 mg per ml solution of the normal peptide (SEQ ID NO:1) was prepared in 0.1% acetic acid. Each rat of a first of the groups had subcutaneously injected into its right thigh 0.1 ml of the modified peptide solution. Similarly, each rat of the second group was injected with 0.1 ml of the normal peptide solution. Each rat of the third group, the control group, was injected with 0.1 ml of 0.1% acetic acid solution. Immediately following these injections, each rat was injected intramuscularly with 24 mg per Kg body weight of tetracycline hydrochloride dissolved in 0.5 ml of water. A second dose of tetracycline hydrochloride was administered 48 hours later. The animals were sacrificed 24 hours after the second dose by CO2 narcosis. The lower metaphysis of the right femur was dissected out and fixed in a 10% aqueous solution of formaldehyde buffered at pH 7.2 by acetate buffer. Bone sections were prepared for measurement as described above.
# Sprague-Dawley rats were used as test animals to determine bone mineral apposition rate, as described above. Male rats having weights between 280 and 380 g were subject to subcutaneous injection after one week of acclimatization. Each animal was injected with 200 μl of a 0.1% acetic acid test solution, solutions having been prepared at concentrations to obtain a dosage of about 25 nmol of polypeptide per animal. Each test dose was immediately followed by intramuscular injection of 24 mg per Kg of body weight of tetracycline hydrochloride. A second injection of tetracycline was made 48 hours later.
# Bone mineral apposition rates were determined by measurements of the lower metaphysis of the right femur, as described previously. Results obtained in the two sets of experiments are summarized in Tables Seven and Eight and graphically depicted in FIGS. 8 and 9.
# Bone mineral apposition rates were again determined by measurement of the lower metaphysis of the right femur. Results obtained are summarized in Table Nineteen and graphically depicted in FIG. 12. […]
# In a final set of experiments, a polypeptide having the ninth amino acid, cysteine, replaced by the amino acid tyrosine, SEQ ID NO:43, was synthesized and tested for bone stimulatory activity. Four rats (about 300 grams) were each administered with 100 nmoles of material (in 400 μl 20 mM acetic acid solution) by subcutaneous injection along with tetracycline (5 mg per animal in 400 μl water), as described above. A second dosage of tetracycline was administered 48 hours later and the animals sacrificed 24 hours after that. The lower metaphysis of the right femur was examined to determine the bone mineral apposition rate. For comparison, experiments were performed using a control in which no compound was present in the acetic acid solution.
# [2] = Stability of dissolved polypeptides (capillary electrophoresis, RP-HPLC); format: physicochemical; settings: for Stability relative to SEQ ID NOs: 7 or 24: general summary of stability tests
# Protocol: Each of the polypeptides having the sequences identified as SEQ ID NO: 7 and 24 was dissolved in 5 mM acetic acid to a final concentration of 1 mg/ml and incubated at 37° C. The peptide compositions were analyzed weekly by capillary electrophoresis on a P/ACE 6000 system (Beckman) using 50 mM sodium phosphate pH 2.5 as the running buffer on a 57 cm long×75 μm internal diameter capillary. The incubated peptide (20 μl) was diluted with 80 μl of running buffer, placed in a 500 μl vial prior to injection onto the P/ACE using pressure for 20 seconds. Following electrophoresis of the incubated peptide at 30 kV for 15 min a second run was carried out using freshly dissolved peptide as a control.
# Each of the polypeptides was dissolved in 20 mM sodium phosphate pH 3.0, 20 mM ammonium acetate pH 4.0, 20 mM ammonium acetate pH 5.0, 20 mM MES pH 6.0, 20 mM sodium phosphate pH 7.0, 20 mM sodium phosphate pH 7.5, 20 mM sodium phosphate pH 8.0, 20 mM ammonium acetate pH 8.5 or 20 mM ammonium acetate pH 9.5 to a final concentration of 1 mg/ml. The peptide was incubated at 37° C. and the peptide assayed weekly by separation on P/ACE as described above. Some samples were separated by RP-HPLC and the isolated peaks subjected to mass spectroscopic analysis.
# The protected polypeptide identified as SEQ ID NO:24 was dissolved in 20 mM or 250 mM ammonium acetate pH 4.5 to a final concentration of 1 mg/ml. In some experiments the buffer was supplemented with 20 mM EDTA. The peptide solution was then incubated at −70° C., −20° C., 4° C. or room temperature (22° C.). Samples were assayed weekly by electrophoresis on the P/ACE as described above and/or by RP-HPLC.
# The stability of each of the polypeptides having the amino acid sequences identified as SEQ ID NOs: 25, 26 and 27 was tested as described above.
# [3] = about 25 nmol per animal s.c., second, separate set (Table Eight)
# [4] = about 125 nmoles of polypeptide per Kg of body weight (Table Twenty)
# [5] = approximately 500 gm male Sprague-Dawley rats, 300 nmol/kg bodyweight (Table Twenty-Two)
# [6] = male Sprague-Dawley rats 280-380 g, about 25 nmol per animal s.c., first set (Table Seven)
# [7] = 20 mM buffers pH 3.0 to 9.5, 1 mg/ml, 37° C.
substance,measurement,setting,value
RTNEHTADCKIKPNTLHKKAAETLMVLDQN [SEQ ID NO:15],Increase of bone apposition rate with respect to the control,[1],none
same,"Bone Apposition Rate, Mean",[1],0.92 μm/day
"SEQ ID NO:34: SEQ ID NO:24 sequence with one amino acid having a charged side chain substituted by alanine; acetylated, amidated (Ac-ATNEHTADCK-NH2)",Bone stimulatory activity of substituted 10-amino acid polypeptides,[1],lack or to exhibit substantially less bone stimulatory activity
Arg Thr Asn Glu His Thr Ala Asp Cys Lys (Ac-RTNEHTADCK-NH2) [SEQ ID NO:9],"Bone mineral apposition rate, Mean",[1]; [3],2.83 μm/d
same,Mean Bone Apposition Rate,[1]; [4],2.11 μm/day
"SEQ ID NO:45: third amino acid asparagine replaced by glutamine, eighth aspartic acid by glutaric acid, ninth cysteine by tyrosine (as printed) (Ac-RTQEHTAEYK; not fully specified; also: position 8 stated as glutaric acid replacing Asp, X10 not defined)",Mean Bone Apposition Rate,[1]; [5],1.77 μm/day
"SEQ ID NO:37: SEQ ID NO:24 sequence with one amino acid having a charged side chain substituted by alanine; acetylated, amidated (Ac-RTNEHTAACK-NH2)",Bone stimulatory activity of substituted 10-amino acid polypeptides,[1],lack or to exhibit substantially less bone stimulatory activity
GIGKRTNEHTADCKIKPNTLHKKAAETLMV [SEQ ID NO:4],"Bone mineral apposition rate, Mean",[1]; [6],1.31 μm per day
CH3CO-Arg Thr Asn Glu His Thr Ala Glu Cys Lys-NH2 (Ac-RTNEHTAECK-NH2) [SEQ ID NO:25],Stability relative to SEQ ID NOs: 7 or 24,[2],more stable
same,Stability in solution,[2]; pH 2.5-3.0 for 20 days,stable
same,Mean Bone Apposition Rate,"[1]; Table Twenty-One, FIG. 14, N=4",1.94 μm/day
"SEQ ID NO:24: ten amino acid sequence of SEQ ID NO:9, acetylated at the amino terminus and amidated at the carboxy terminus (Ac-RTNEHTADCK-NH2)",Stability when dissolved in dilute acids,"[2]; 5 mM acetic acid, 1 mg/ml, 37° C., analyzed weekly by capillary electrophoresis",degraded overtime
same,pH above which the peptide dimerized,[2]; [7],> 6.0
same,pH at which the peptide was most stable,[2]; [7],~4.5
same,pH below which the peptide degraded,[2]; [7],< 4.0
same,Stability as a powder and when dissolved in pH 4.5 buffer,"[2]; 20 mM or 250 mM ammonium acetate pH 4.5, 1 mg/ml",very stable
same,Dissolved peptide compared with dry peptide stored at −70° C.,"[2]; ammonium acetate pH 4.5, 1 mg/ml, incubated at 4° C., −20° C. or −70° C., up to 28 days",unchanged
same,Time after which modification of the peptide was observed (RP-HPLC),"[2]; ammonium acetate pH 4.5, 1 mg/ml, room temperature (22° C.)",7 days
same,Mean Bone Apposition Rate,"[1]; Table Twenty-One, FIG. 14, N=4",2.04 μm/day
same,Mean Bone Apposition Rate,[1]; [4],2.72 μm/day
GIGKRTNEHTADCK [SEQ ID NO:8],"Bone mineral apposition rate, Mean",[1]; [3],2.09 μm/d
LHKKAAETLMVLDQN [SEQ ID NO:11],Increase of bone apposition rate with respect to the control,[1],none
TADCKIKPNTLHKKAAETLMVLD [SEQ ID NO:14],Increase of bone apposition rate with respect to the control,[1],none
same,"Bone Apposition Rate, Mean",[1],0.92 μm/day
LHKKAAETLMVLD [SEQ ID NO:13],Increase of bone apposition rate with respect to the control,[1],none
"SEQ ID NO:36: SEQ ID NO:24 sequence with one amino acid having a charged side chain substituted by alanine; acetylated, amidated (Ac-RTNEATADCK-NH2)",Bone stimulatory activity of substituted 10-amino acid polypeptides,[1],lack or to exhibit substantially less bone stimulatory activity
GIGKRTNEHTADCKIKPNTLHKKAA [SEQ ID NO:5],"Bone mineral apposition rate, Mean",[1]; [6],1.35 μm per day
LHKKAAETLMVLDQ [SEQ ID NO:12],Increase of bone apposition rate with respect to the control,[1],none
"SEQ ID NO:38: SEQ ID NO:24 sequence with one amino acid having a charged side chain substituted by alanine; acetylated, amidated (Ac-RTNEHTADCA-NH2)",Bone stimulatory activity of substituted 10-amino acid polypeptides,[1],lack or to exhibit substantially less bone stimulatory activity
CH3CO-Arg Thr Gln Glu His Thr Ala Asp Cys Lys-NH2 (Ac-RTQEHTADCK-NH2) [SEQ ID NO:27],Stability in solution,"[2]; all pHs tested, 37° C. for 3 days",unstable
same,Stability relative to SEQ ID NOs: 7 or 24,[2],significantly less stable
same,Mean Bone Apposition Rate,"[1]; Table Twenty-One, FIG. 14, N=4",1.72 μm/day
GIGKRTNEHTADAKIKPNTLHKKAAETLMVLDQNQP [SEQ ID NO:3],"Bone mineral apposition rate, Mean","[1]; rats 295-320 g, 0.1 ml of 1 mg per ml solution s.c., lower metaphysis of right femur (Table Six)",1.35 μm/d
RTNEHTADCKI [SEQ ID NO:16],Increase of bone apposition rate with respect to the control,[1],none
same,"Bone Apposition Rate, Mean",[1],1.02 μm/day
CH3CO-Arg Thr Gln Glu His Thr Ala Glu Cys Lys-NH2 (Ac-RTQEHTAECK-NH2) [SEQ ID NO:26],Stability relative to SEQ ID NOs: 7 or 24,[2],more stable
same,Stability in solution,"[2]; pH 2.5-3.0, incubated at 37° C.",stable
same,Mean Bone Apposition Rate,"[1]; Table Twenty-One, FIG. 14, N=4",2.88 μm/day
same,Mean Bone Apposition Rate,[1]; [5],2.04 μm/day
GIGKRTNEHTADCKIKPNTL [SEQ ID NO:6],"Bone mineral apposition rate, Mean",[1]; [6],1.37 μm per day
LHKKAAETLMVLDQNQ [SEQ ID NO:10],Increase of bone apposition rate with respect to the control,[1],none
